Measurements from PubChem BioAssay AID192 (DTP/NCI, 2004).
“And” between values parts separate entries of the source, which are not always exact repeats. Equal values may be shown once. Inconclusive results and toxic doses are left out.

Tested on: BDF1 mice, B16 melanoma ip, median survival T/C
Test: NCI In Vivo Anticancer Drug Screen. Data for tumor model B16 Melanoma (intraperitoneal) in B6D2F1 (BDF1) mice
Conditions: endpoint: median survival time, higher = longer survival
Procedure, shortened: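 Compounds were tested in mice carrying transplantable tumors. Survival or tumor size was recorded, and each value is the treated-group measurement (T) divided by that of the vehicle-treated control group (C).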

[1] = dose: 75.0 mg/kg/injection, schedule: Q01DX009 (ip), vehicle: Klucel (hydroxypropylcellulose) (HPC)
[2] = dose: 150.0 mg/kg/injection, schedule: Q01DX009 (ip), vehicle: Klucel (hydroxypropylcellulose) (HPC)
[3] = dose: 300.0 mg/kg/injection, schedule: Q01DX009 (ip), vehicle: Klucel (hydroxypropylcellulose) (HPC)
[4] = dose: 1.56 mg/kg/injection, schedule: Q01DX009 (ip), vehicle: saline
[5] = dose: 6.25 mg/kg/injection, schedule: Q01DX009 (ip), vehicle: saline
[6] = dose: 12.5 mg/kg/injection, schedule: Q01DX009 (ip), vehicle: saline
[7] = dose: 25.0 mg/kg/injection, schedule: Q01DX009 (ip), vehicle: saline
[8] = dose: 50.0 mg/kg/injection, schedule: Q01DX009 (ip), vehicle: saline

Question: C=C1C(=O)OC2/C=C(\C)CC/C=C(/C=O)C(OC(=O)C(C)C)C(O)C12 (centres undefined) was tested. Which T/C (dose: 1.0 mg/kg/injection, schedule: Q01DX009 (ip), vehicle: saline with Tween-80) did it give?
Answer: Its T/C is 97 % of control.

Question: What about the T/C (dose: 2.0 mg/kg/injection, schedule: Q01DX009 (ip), vehicle: saline with Tween-80) of the same compound?
Answer: Its T/C is 89 % of control and 97 % of control.

Question: What about the T/C (dose: 4.0 mg/kg/injection, schedule: Q01DX009 (ip), vehicle: saline with Tween-80) of the same compound?
Answer: Its T/C is 100 % of control and 103 % of control.

Question: And the T/C (dose: 8.0 mg/kg/injection, schedule: Q01DX009 (ip), vehicle: saline with Tween-80)?
Answer: Its T/C is 100 % of control.

Question: For Cc1ccc(NC(=O)c2ccccc2Cl)cc1Cl, which T/C [1] is on record?
Answer: The T/C was 103 % of control.

Question: What about the T/C [2] of the same compound?
Answer: Its T/C is 103 % of control.

Question: And the T/C [3]?
Answer: The T/C was 100 % of control.

Question: For CCc1ccccc1NC(=O)Nc1ccc(Cl)c(Cl)c1, which T/C [1] is on record?
Answer: Its T/C is 102 % of control.

Question: What about the T/C [2] of the same compound?
Answer: The T/C was 97 % of control.

Question: And the T/C [3]?
Answer: The T/C was 89 % of control.

Question: Which T/C (dose: 0.1 mg/kg/injection, schedule: Q01DX009 (ip), vehicle: Klucel (hydroxypropylcellulose) (HPC)) does the source give for CCCCCCCCCCCCCCCC[N+]1(CC)CCCC1 here?
Answer: Its T/C is 102 % of control.

Question: What about the T/C (dose: 0.2 mg/kg/injection, schedule: Q01DX009 (ip), vehicle: Klucel (hydroxypropylcellulose) (HPC)) of the same compound?
Answer: Its T/C is 95 % of control.

Question: What does the source list for COC(CBr)c1ccccc1 (centres undefined)?
Answer: T/C (dose: 3.12 mg/kg/injection, schedule: Q01DX009 (ip), vehicle: Klucel (hydroxypropylcellulose) (HPC)): 102 % of control; T/C (dose: 6.25 mg/kg/injection, schedule: Q01DX009 (ip), vehicle: Klucel (hydroxypropylcellulose) (HPC)): 104 % of control; T/C (dose: 10.0 mg/kg/injection, schedule: Q04DX003 (ip), vehicle: Klucel (hydroxypropylcellulose) (HPC)): 97 % of control; T/C (dose: 12.5 mg/kg/injection, schedule: Q01DX009 (ip), vehicle: Klucel (hydroxypropylcellulose) (HPC)): 92 % of control; T/C (dose: 20.0 mg/kg/injection, schedule: Q04DX003 (ip), vehicle: Klucel (hydroxypropylcellulose) (HPC)): 87 % of control; T/C (dose: 40.0 mg/kg/injection, schedule: Q04DX003 (ip), vehicle: Klucel (hydroxypropylcellulose) (HPC)): 87 % of control

Question: For Cc1c(CNc2ccc(C(=O)NC(CC(=O)O)CC(=O)O)cc2)ccc2nc(N)nc(N)c12, which T/C (dose: 0.05 mg/kg/injection, schedule: Q01DX009 (ip), vehicle: saline) is on record?
Answer: The T/C was 111 % of control.

Question: And the T/C (dose: 0.1 mg/kg/injection, schedule: Q01DX009 (ip), vehicle: saline)?
Answer: Its T/C is 111 % of control.

Question: What about the T/C (dose: 0.12 mg/kg/injection, schedule: Q01DX009 (ip), vehicle: saline with Tween-80) of the same compound?
Answer: The T/C was 102 % of control.

Question: What about the T/C (dose: 0.2 mg/kg/injection, schedule: Q01DX009 (ip), vehicle: saline) of the same compound?
Answer: The T/C was 116 % of control.

Question: And the T/C (dose: 0.25 mg/kg/injection, schedule: Q01DX009 (ip), vehicle: saline with Tween-80)?
Answer: The T/C was 91 % of control.

Question: And the T/C (dose: 0.37 mg/kg/injection, schedule: Q01DX009 (ip), vehicle: saline)?
Answer: The T/C was 100 % of control.

Question: C[n+]1c2cc(N)ccc2cc2ccc(N)cc21 was tested. Which T/C [4] did it give?
Answer: The T/C was 107 % of control.

Question: And the T/C (dose: 3.13 mg/kg/injection, schedule: Q01DX009 (ip), vehicle: saline)?
Answer: The T/C was 117 % of control.

Question: And the T/C [5]?
Answer: The T/C was 115 % of control.

Question: What about the T/C [6] of the same compound?
Answer: Its T/C is 111 % of control.

Question: Which T/C (dose: 13.0 micrograms/kg/injection, schedule: Q01DX009 (ip), vehicle: saline with Tween-80) does the source give for O=C1C=C(SCCO)C(=O)c2ccccc21 here?
Answer: The T/C was 100 % of control.

Question: What about the T/C (dose: 18.7 micrograms/kg/injection, schedule: Q01DX009 (ip), vehicle: saline with Tween-80) of the same compound?
Answer: Its T/C is 94 % of control.

Question: And the T/C (dose: 20.0 micrograms/kg/injection, schedule: Q01DX009 (ip), vehicle: saline with Tween-80)?
Answer: Its T/C is 92 % of control.

Question: And the T/C (dose: 30.0 micrograms/kg/injection, schedule: Q01DX009 (ip), vehicle: saline with Tween-80)?
Answer: Its T/C is 95 % of control.

Question: And the T/C (dose: 45.0 micrograms/kg/injection, schedule: Q01DX009 (ip), vehicle: saline with Tween-80)?
Answer: Its T/C is 117 % of control.

Question: And the T/C (dose: 90.0 micrograms/kg/injection, schedule: Q01DX009 (ip), vehicle: saline with Tween-80)?
Answer: The T/C was 107 % of control.

Question: For COc1ccc2c(c1OC(C)=O)-c1cc(OC(C)=O)cc3c1C(C2)N(C(=O)CN(CCCl)CCCl)CC3 (centres undefined), which T/C (dose: 1.56 mg/kg/injection, schedule: Q04DX003 (ip), vehicle: DMSO) is on record?
Answer: The T/C was 92 % of control.

Question: And the T/C (dose: 3.13 mg/kg/injection, schedule: Q04DX003 (ip), vehicle: DMSO)?
Answer: Its T/C is 108 % of control.

Question: And the T/C (dose: 6.25 mg/kg/injection, schedule: Q04DX003 (ip), vehicle: DMSO)?
Answer: Its T/C is 115 % of control.

Question: What about the T/C (dose: 25.0 mg/kg/injection, schedule: Q04DX003 (ip), vehicle: DMSO) of the same compound?
Answer: Its T/C is 165 % of control.

Question: With O=c1oc2c(CN3CCCCC3)c(O)ccc2c2c1CCCC2 as the compound, how does the T/C (dose: 64.0 mg/kg/injection, schedule: Q01DX009 (ip), vehicle: Klucel (hydroxypropylcellulose) (HPC)) read?
Answer: Its T/C is 112 % of control.

Question: What about the T/C (dose: 128.0 mg/kg/injection, schedule: Q01DX009 (ip), vehicle: Klucel (hydroxypropylcellulose) (HPC)) of the same compound?
Answer: The T/C was 98 % of control.

Question: And the T/C (dose: 256.0 mg/kg/injection, schedule: Q01DX009 (ip), vehicle: Klucel (hydroxypropylcellulose) (HPC))?
Answer: Its T/C is 106 % of control.

Question: What about the T/C (dose: 512.0 mg/kg/injection, schedule: Q01DX009 (ip), vehicle: Klucel (hydroxypropylcellulose) (HPC)) of the same compound?
Answer: Its T/C is 93 % of control.

Question: Which T/C [1] does the source give for O=[N+]([O-])c1ccc(O)c(N=Cc2ccc(C=Nc3cc([N+](=O)[O-])ccc3O)cc2)c1 here?
Answer: The T/C was 89 % of control.

Question: What about the T/C [2] of the same compound?
Answer: Its T/C is 93 % of control.

Question: How did the T/C [7] turn out when C1CCN(CCC2CCNCC2)CC1 was run?
Answer: Its T/C is 109 % of control.

Question: And the T/C [8]?
Answer: Its T/C is 90 % of control.

Question: How did the T/C (dose: 2.5 mg/kg/injection, schedule: Q01DX009 (ip), vehicle: other) turn out when c1ccc(C[P+](c2ccccc2)(c2ccccc2)c2ccccc2)cc1 was run?
Answer: The T/C was 92 % of control.

Question: What about the T/C (dose: 5.0 mg/kg/injection, schedule: Q01DX009 (ip), vehicle: other) of the same compound?
Answer: Its T/C is 94 % of control.

Question: And the T/C (dose: 10.0 mg/kg/injection, schedule: Q01DX009 (ip), vehicle: other)?
Answer: Its T/C is 94 % of control.

Question: And the T/C (dose: 20.0 mg/kg/injection, schedule: Q01DX009 (ip), vehicle: other)?
Answer: The T/C was 89 % of control.

Question: OCCN1CCN(CCCN2c3ccccc3Sc3ccc(C(F)(F)F)cc32)CC1 was tested. Which T/C (dose: 0.04 mg/kg/injection, schedule: Q01DX009 (ip), vehicle: saline) did it give?
Answer: The T/C was 91 % of control.

Question: What about the T/C (dose: 0.09 mg/kg/injection, schedule: Q01DX009 (ip), vehicle: saline) of the same compound?
Answer: Its T/C is 90 % of control and 106 % of control.

Question: What about the T/C (dose: 0.19 mg/kg/injection, schedule: Q01DX009 (ip), vehicle: saline) of the same compound?
Answer: The T/C was 102 % of control and 93 % of control.

Question: What about the T/C (dose: 0.39 mg/kg/injection, schedule: Q01DX009 (ip), vehicle: saline) of the same compound?
Answer: The T/C was 103 % of control and 109 % of control.

Question: And the T/C (dose: 0.78 mg/kg/injection, schedule: Q01DX009 (ip), vehicle: saline)?
Answer: Its T/C is 99 % of control and 91 % of control.

Question: And the T/C [4]?
Answer: Its T/C is 97 % of control.

Question: What does the source list for CCC(C)NC(=O)Nc1cccc(Cl)c1C (centres undefined)?
Answer: T/C (dose: 100.0 mg/kg/injection, schedule: Q01DX009 (ip), vehicle: saline with Tween-80): 102 % of control; T/C (dose: 200.0 mg/kg/injection, schedule: Q01DX009 (ip), vehicle: saline with Tween-80): 96 % of control

Question: Which T/C (dose: 2.5 mg/kg/injection, schedule: Q01DX009 (ip), vehicle: saline) does the source give for O=C1C(N2CCCCC2)=C(N2CC2)C(=O)C(N2CCCCC2)=C1N1CC1 here?
Answer: Its T/C is 94 % of control and 97 % of control.

Question: And the T/C (dose: 5.0 mg/kg/injection, schedule: Q01DX009 (ip), vehicle: saline)?
Answer: Its T/C is 121 % of control.

Question: What does the source list for CCc1c2cc(OC)c(OC)cc2cc2c3cc(OC)c(OC)cc3cc[n+]12 (tested in a mixture with another compound)?
Answer: T/C (dose: 4.8 mg/kg/injection, schedule: Q01DX009 (ip), vehicle: saline): 98 % of control; T/C (dose: 9.5 mg/kg/injection, schedule: Q01DX009 (ip), vehicle: saline): 98 % of control; T/C (dose: 19.0 mg/kg/injection, schedule: Q01DX009 (ip), vehicle: saline): 99 % of control; T/C (dose: 37.5 mg/kg/injection, schedule: Q01DX009 (ip), vehicle: saline with Tween-80): 117 % of control; T/C (dose: 38.0 mg/kg/injection, schedule: Q01DX009 (ip), vehicle: saline): 95 % of control; T/C (dose: 75.0 mg/kg/injection, schedule: Q01DX009 (ip), vehicle: saline with Tween-80): 108 % of control; T/C (dose: 150.0 mg/kg/injection, schedule: Q01DX009 (ip), vehicle: saline with Tween-80): 98 % of control

Question: For OCC(O)COCC#Cc1ccccc1 (centres undefined), which T/C [5] is on record?
Answer: Its T/C is 118 % of control.

Question: And the T/C [6]?
Answer: The T/C was 114 % of control.

Question: And the T/C [7]?
Answer: The T/C was 110 % of control.

Question: What about the T/C (dose: 50.0 mg/kg/injection, schedule: Q01DX009 (ip), vehicle: Klucel (hydroxypropylcellulose) (HPC)) of the same compound?
Answer: Its T/C is 87 % of control.

Question: What about the T/C [8] of the same compound?
Answer: Its T/C is 101 % of control.

Question: Which results are given for COc1ccc(-n2c(=S)[nH]c3ccccc3c2=O)cc1?
Answer: T/C (dose: 100.0 mg/kg/injection, schedule: Q01DX009 (ip), vehicle: Klucel (hydroxypropylcellulose) (HPC)): 97 % of control; T/C (dose: 200.0 mg/kg/injection, schedule: Q01DX009 (ip), vehicle: Klucel (hydroxypropylcellulose) (HPC)): 88 % of control
